Test results reported in US20230096766A1, “AMINO ACID HAVING FUNCTIONAL GROUP CAPABLE OF INTERMOLECULAR HYDROGEN BONDING, PEPTIDE COMPOUND CONTAINING SAME AND METHOD FOR PRODUCTION THEREOF” (Chugai Seiyaku Kabushiki Kaisha, priority 2018, published 2023).
*1 amine or outer side, *2 acyl side, *3 side chain or, on linkers, in order; H or OH if unused. Where a SMILES comes first, the peptide text is derived from it. Bridges are numbered along the chain shown (N, C = ends). [ ]: non-standard residue; d: D form. The star is where a group is joined. ξ: configuration not given here. X19 = CC(C)C[C@H](NN(C)[C@H](Cc1ccccc1)N(C)[*:1])C(=O)[*:2]; Phe(3-CONHMe,4-OMe) = CNC(=O)c1cc(C[C@H](N)C(=O)O)ccc1OC; NMePhe(3-Cl) = CN[C@@H](Cc1cccc(Cl)c1)C(=O)O; Tyr(3-F) = N[C@@H](Cc1ccc(O)c(F)c1)C(=O)O; Tyr(3-OMe) = COc1cc(C[C@H](N)C(=O)O)ccc1O; NMehPhe = CN[C@@H](CCc1ccccc1)C(=O)O; X9 = O=C([C@@H](CN[*:1])COCCO)[*:2]; X6 = O=C([C@H](CCCCO)N[*:1])[*:2]; NMeF = CN[C@@H](Cc1ccccc1)C(=O)O; NMeGABA = CN(CCCC(=O)[*:2])[*:1]; CH2CONHtBu = CC(C)(C)NC(=O)C*; NMeL = CN[C@@H](CC(C)C)C(=O)O; NMeV = CN[C@H](C(=O)O)C(C)C; NMeA = CN[C@@H](C)C(=O)O; Piperidide = C1CCN(*)CC1; NBuGly = CCCCNCC(=O)O; NPrGly = CCCNCC(=O)O; ξV = CC(C)C(N)C(=O)O; Sar = CNCC(=O)O; tBu = CC(C)(C)*

Test: in vitro
Conditions: human, Caco-2, Caco-2 (cm/sec)

Structure (SMILES) | Papp [×10⁻⁶ cm/s]
CC(C)C[C@@H]1NC(=O)[C@H](Cc2ccccc2)N(C)C(=O)C(C(C)C)NC(=O)C[C@@H](C(=O)N2CCCCC2)NC(=O)[C@H](Cc2ccccc2)N(C)C(=O)[C@H](Cc2ccccc2)N(C)C(=O)[C@H](COC(C)(C)C)NC(=O)[C@H](CC(C)C)N(C)C(=O)CN(C)C(=O)[C@H]([C@@H](C)O)NC(=O)[C@H](CC(C)C)N(C)C1=O (stereo partly drawn) [pd215] ([ξV][NMeF]L[NMeL]T[Sar][NMeL]S(tBu)[NMeF][NMeF]D-Piperidide; lactam N-11) | 1.2
CCCCN1CC(=O)N(C)[C@@H](Cc2ccccc2)C(=O)N[C@@H]([C@@H](C)CC)C(=O)N(C)[C@@H](CC(C)C)C(=O)N[C@@H]([C@@H](C)O)C(=O)N(CCC)CC(=O)N(C)[C@@H](Cc2ccccc2)C(=O)N(C)[C@@H](CC(C)C)C(=O)N[C@@H](COCC(=O)NC(C)(C)C)C(=O)N(C)[C@@H](C)C(=O)N[C@H](C(=O)N2CCCCC2)CC1=O [AP18] ([NBuGly][NMeF]I[NMeL]T[NPrGly][NMeF][NMeL]S(CH2CONHtBu)[NMeA]D-Piperidide; lactam N-11) | 1
CC(C)C[C@@H]1NC(=O)[C@H](Cc2ccccc2)N(C)C(=O)[C@@H]2CCCN2C(=O)C[C@@H](C(=O)N2CCCCC2)NC(=O)[C@H](Cc2ccccc2)N(C)C(=O)[C@H](Cc2ccccc2)N(C)C(=O)[C@H](COC(C)(C)C)NC(=O)[C@H](CC(C)C)N(C)C(=O)CN(C)C(=O)[C@H]([C@@H](C)O)NC(=O)[C@H](CC(C)C)N(C)C1=O [pd203] (P[NMeF]L[NMeL]T[Sar][NMeL]S(tBu)[NMeF][NMeF]D-Piperidide; lactam N-11) | 2.1
COc1cc(C[C@@H]2NC(=O)[C@H](CC(C)C)N(C)C(=O)CN(C)C(=O)[C@H]([C@@H](C)O)NC(=O)[C@H](CC(C)C)N(C)C(=O)[C@H](CC(C)C)NN(C)[C@H](Cc3ccccc3)N(C)C(=O)[C@@H](C(C)C)NC(=O)C[C@@H](C(=O)N3CCCCC3)NC(=O)[C@H](CC(C)C)N(C)C(=O)[C@H](CC(C)C)N(C)C2=O)ccc1O [Compound E01] ([dV][X19][NMeL]T[Sar][NMeL][Tyr(3-OMe)][NMeL][NMeL]D-Piperidide; lactam N-10) | 1.1
CNC(=O)c1cc(C[C@@H]2NC(=O)[C@H](CC(C)C)N(C)C(=O)[C@H](CC(C)C)N(C)C(=O)[C@H](CC(C)C)NC(=O)[C@H](CC(C)C)N(C)C(=O)C[C@@H](C(=O)N3CCCCC3)NC(=O)[C@H](CC(C)C)N(C)C(=O)CN(C)C(=O)[C@H]([C@@H](C)O)NC(=O)[C@H](C(C)C)N(C)C(=O)[C@H](CC(C)C)N(C)C2=O)ccc1OC [AP40] ([NMeL]L[NMeL][NMeL][Phe(3-CONHMe,4-OMe)][NMeL][NMeV]T[Sar][NMeL]D-Piperidide; lactam N-11) | 0.63
CC[C@H](C)[C@@H]1NC(=O)[C@H](CC(C)C)N(C)C(=O)CCCN(C)C(=O)C[C@@H](C(=O)N2CCCCC2)NC(=O)[C@H](CC(C)C)N(C)C(=O)[C@H](C)N(C)C(=O)[C@H]([C@@H](C)O)NC(=O)[C@H](CC(C)C)N(C)C(=O)[C@H](Cc2ccc(O)c(F)c2)NC(=O)[C@H](CC(C)C)N(C)C(=O)[C@H](Cc2ccccc2)N(C)C1=O [pd119] ([NMeGABA][NMeL]I[NMeF][NMeL][Tyr(3-F)][NMeL]T[NMeA][NMeL]D-Piperidide; lactam N-11) | 0.16
CCCN1CC(=O)N(C)[C@@H](Cc2cccc(Cl)c2)C(=O)N(C)[C@@H](CC(C)C)C(=O)N[C@@H](CCCCO)C(=O)N(C)[C@@H](CC(C)C)C(=O)N[C@H](C(=O)N2CCCCC2)CC(=O)N(C)CC(=O)N(C)[C@@H](CCc2ccccc2)C(=O)N[C@@H](C(C)C)C(=O)N(C)[C@@H](CC(C)C)C(=O)N[C@@H]([C@@H](C)O)C1=O [Compound B08] ([Sar][NMehPhe]V[NMeL]T[NPrGly][NMePhe(3-Cl)][NMeL][X6][NMeL]D-Piperidide; lactam N-11) | 0.15
CCCN1CC(=O)N(C)[C@@H](C)C(=O)N[C@H](C(=O)N2CCCCC2)CC(=O)N(C)[C@@H](CC(C)C)C(=O)N[C@@H](Cc2ccccc2)C(=O)N(C)[C@@H](CC(C)C)C(=O)N(C)[C@@H](CC(C)C)C(=O)N[C@@H](COCC(=O)NC(C)(C)C)C(=O)N(C)[C@@H](CCc2ccccc2)C(=O)N(C)[C@@H](CC(C)C)C(=O)N[C@@H]([C@@H](C)O)C1=O [AP15] ([NMeL]F[NMeL][NMeL]S(CH2CONHtBu)[NMehPhe][NMeL]T[NPrGly][NMeA]D-Piperidide; lactam N-11) | 0.86
CCCCN1CC(=O)N(C)[C@@H](CC(C)C)C(=O)NC[C@@H](COCCO)C(=O)N(C)[C@@H](Cc2ccccc2)C(=O)N(C)[C@@H](CC(C)C)C(=O)N[C@H](C(=O)N2CCCCC2)CC(=O)N[C@H](CC(C)C)C(=O)N(C)[C@@H](CC(C)C)C(=O)N[C@@H](Cc2ccccc2)C(=O)N(C)[C@@H](CC(C)C)C(=O)N[C@@H]([C@@H](C)O)C1=O [AP128] ([dL][NMeL]F[NMeL]T[NBuGly][NMeL][X9][NMeF][NMeL]D-Piperidide; lactam N-11) | 0.78

Same assay, conditions: human, Caco-2, Caco-2 (cm/sec) Papp

Structure (SMILES) | Papp [×10⁻⁶ cm/s]
CC(C)C[C@H]1C(=O)NCC(=O)N[C@H](C(=O)N(C)[C@@H](Cc2ccccc2)C(=O)N(C)[C@@H](Cc2ccccc2)C(=O)N[C@@H](C)C(=O)N2CCCCC2)CC(=O)N[C@@H](C)C(=O)N[C@@H]([C@@H](C)O)C(=O)N(C)[C@@H](C)C(=O)N(C)[C@@H](Cc2ccccc2)C(=O)N[C@@H](C(C)C)C(=O)N(C)[C@@H](Cc2ccccc2)C(=O)N1C [pd247] (AT[NMeA][NMeF]V[NMeF][NMeL]GD[NMeF][NMeF]A-Piperidide; lactam N-9) | 0.087
